Measured values from ChEMBL document CHEMBL6078719, “Discovery of acetohydroxyacid synthase inhibitors as anti-tuberculosis lead compounds from natural products” (Bioorg Med Chem, 2025).
≈ marks a conversion by molar mass, not a printed value. Calls of active or inactive are those of the source. The calls are words filed in the database; no cut-off is given here.

Tests used:
[1] = test system: Mycolicibacterium smegmatis; assay: Antibacterial activity against Mycobacterium smegmatis assessed as inhibition of bacterial growth incubated for 3 days by alamar blue staining based assay; assay type: functional; settings: 72 h, time 3 day
[2] = Inhibition of Mycobacterium tuberculosis Acetohydroxy acid synthase using pyruvate as substrate incubated for 10 mins followed by substrate addition by colorimetric assay
[3] = Inhibition of Mycobacterium tuberculosis Acetohydroxy acid synthase using pyruvate as substrate at 40 uM incubated for 10 mins followed by substrate addition by colorimetric assay relative to control
[4] = test system: Mycolicibacterium smegmatis; assay: Synergistic antibacterial activity against Mycobacterium smegmatis assessed as inhibition of bacterial growth incubated for 3 days in presence of rifampicin by alamar blue staining based assay; assay type: functional, organism-based; settings: time 3.0 day
[5] = Selectivity index, ratio of IC50 for cytotoxicity against human THP-1 cells to MIC90 for antimycobacterial activity against Mycobacterium tuberculosis; assay type: toxicity, cell-based; settings: read-out: Selectivity Index
[6] = Cytotoxicity against human THP-1 cells incubated for 48 hrs by CCK8 assay; assay type: toxicity, cell-based
[7] = test system: Mycobacterium tuberculosis; assay: Antimycobacterial activity against Mycobacterium tuberculosis assessed as inhibition of bacterial growth; assay type: functional
[8] = test system: Mycobacterium tuberculosis; assay: Synergistic antibacterial activity against Mycobacterium tuberculosis assessed as inhibition of bacterial growth incubated for 3 days in presence of rifampicin by alamar blue staining based assay; assay type: functional, organism-based; settings: time 3.0 day
[9] = Binding affinity to Mycobacterium tuberculosis Acetohydroxy acid synthase assessed as binding constant by isothermal titration calorimetry
[10] = test system: Mycobacterium tuberculosis; assay: Antibacterial activity against Mycobacterium tuberculosis assessed as inhibition of bacterial growth incubated for 3 days by alamar blue staining based assay; assay type: functional; settings: 72 h, time 3 day
[11] = test system: Mycobacterium tuberculosis; assay: Binding affinity to Mycobacterium tuberculosis Acetohydroxy acid synthase assessed as change in enthalpy by isothermal titration calorimetry
[12] = test system: Mycobacterium tuberculosis; assay: Binding affinity to Mycobacterium tuberculosis Acetohydroxy acid synthase assessed as gibbs free energy change by isothermal titration calorimetry

| SMILES | MIC [1] [µM] | IC50 [2] [µM] | inhibition [3] [%] | Activity [4] | selectivity ratio [5] | IC50 at 48 h [6] [µM] | MIC90 [7] [µM] | Activity [8] | Kd [9] [µM] | MIC [10] [µM] | deltaH [11] [kcal/mol] | deltaG [12] [kcal/mol] |
| --- | --- | --- | --- | --- | --- | --- | --- | --- | --- | --- | --- | --- |
| CCCCCCCCCCCC1=C(O)C(=O)C=C(O)C1=O [EMBELIN] | > 5000 | 9.46 | > 90 |  |  |  |  |  |  |  |  |  |
| CC1=C(O)C(=O)C=C2C1=CC=C1[C@@]2(C)CC[C@@]2(C)[C@@H]3C[C@](C)(C(=O)O)CC[C@]3(C)CC[C@]12C [CELASTROL] | 62.5 (≈ 28.2 µg/mL) | 0.81 | > 90 | inactive | < 1 | 12.5 | 80 (≈ 36 µg/mL) | inactive | 1.9 | 80 (≈ 36 µg/mL) | -9.87 | -7.81 |
| COC(=O)c1ccccc1S(=O)(=O)NC(=O)Nc1nc(C)cc(C)n1 [SULFOMETURON METHYL] | 7.8 (≈ 2.84 µg/mL) | 3.68 | > 90 |  |  |  |  |  |  |  |  |  |
| O=C(/C=C/c1ccc(O)c(O)c1/C=C/c1ccc(O)c(O)c1)O[C@H](Cc1ccc(O)c(O)c1)C(=O)O [SALVIANOLIC ACID A] | 125 (≈ 61.8 µg/mL) | 0.84 | > 90 | inactive |  |  |  | inactive |  | 312 (≈ 155 µg/mL) |  |  |
| COc1ccc(-c2oc3c(CCC(C)(C)O)c(O)cc(O)c3c(=O)c2O)cc1 | > 5000 | 32.4 | > 90 |  |  |  |  |  |  |  |  |  |
